Reference: US5439812A, “Antibodies catalyzing deamidation of proteins” (The Pennsylvania Research Corporation, priority 1992, dated 1995)
Where a name gives a salt, the structure may show the parent alone. Square brackets hold non-standard residues; d marks the D form. Peptide text beside a SMILES is read from it. * marks the point of attachment. ξ: configuration not given here. NHPhenethyl = c1ccc(CCN*)cc1; ξN = NC(=O)CC(N)C(=O)O

Columns and labels:
[1] = system: monoclonal catalytic antibody 2E4 raised to the RG2 hapten-KLH conjugate; experiment: deamidation of the Asn-Gly substrate catalysed by antibody 2E4 (glutamate dehydrogenase coupled ammonia assay); assay type: biochemical, mouse
Text: (§1) The resulting hybridomas are subjected to a preliminary screening for binding to the hapten using standard methods specifically as described in U.S. Pat. No. 5,079,152 to Benkovic et al, noted above. […] This assay is chosen to specifically screen for those antibodies which catalyze the deamidation reaction and assays by the determination of ammonia. The procedure is a modification of known procedures which use glutamate dehydrogenase to detect ammonia. (See Foncesca-Wollheim, F. Clin. Chem., […], 1483-1487 (1990), and von Anken, H. D., Schiphorst, M. E., Clinica Chimica Acta, 56, 151-157 (1974)).
The deamidation to the cyclic imide intermediate is assayed by a spectrophotometric procedure coupling the antibody-catalyzed reaction to the enzyme glutamate dehydrogenase. Glutamate dehydrogenase utilizes the ammonia produced from the antibody-catalyzed deamidation reaction to convert alpha-ketoglutarate into glutamic acid, oxidizing nicotimamide dinucleotide phosphate in the process (NADPH is oxidized to NADP). The glutamate dehydrogenase reaction is monitored spectrophotometrically.
Thirty antibodies are picked for assay for catalytic activity. The antibodies are delivered in phosphate buffered saline solutions. These are then dialyzed into bicine buffer (pH 9.0, 0.10M) and 100 uL of the dialyzed solution was then added to a solution of bicine (166 uL, pH 9.0, 0.10M). To this is added 16.5 uL of a solution containing 400 uM NADPH, α-ketoglutarate, and adenosine diphosphate. This is mixed thoroughly and then 16.5 uL of analytical grade glutamate dehydrogenase (Boehringer Mannheim) is added and the solution is again mixed thoroughly. The reaction is initiated by addition of the substrate which is stored in a DMSO solution such that the total concentration of DMSO was 5%.
The solution is then transfered to a small cuvette and the decrease in absorbance at 340 nanometers is followed over a period of several hours. Control reactions are performed under identical conditions without the addition of antibody to the reaction mixture (bicine buffer was added in place of the antibody to maintain volume). The antibody catalyzed rate is determined by subtracting the overall rate (antibody-catalyzed and spontaneous rates) from the spontaneous rate determined from the control reaction.
This is not a Vmx since the substrate was not at total saturation of the antibody. The actual rate enhancement is probably greater. […]

[2] = system: monoclonal catalytic antibody 24C3 raised to the RG2 hapten-KLH conjugate; experiment: deamidation of the Asn-Gly substrate catalysed by antibody 24C3 (glutamate dehydrogenase coupled ammonia assay); assay type: biochemical, mouse
Text: as §1
The deamidation to the cyclic imide intermediate is assayed by a spectrophotometric procedure coupling the antibody-catalyzed reaction to the enzyme glutamate dehydrogenase. […] The glutamate dehydrogenase reaction is monitored spectrophotometrically. […]
The solution is then transfered to a small cuvette and the decrease in absorbance at 340 nanometers is followed over a period of several hours. […] The antibody catalyzed rate is determined by subtracting the overall rate (antibody-catalyzed and spontaneous rates) from the spontaneous rate determined from the control reaction. […]

Row | SMILES | inhibition of antibody-catalysed deamidation by hapten [1] | inhibition of antibody-catalysed deamidation by hapten [2] | kcat ([1]; 2E4 investigated in more detail) | Km ([1]; 2E4 investigated in more detail, read-out: binding affinity for the substrate (Km)) [µM] | kcat ([1]; 25° C., bicine pH 9.0, substrate 451 uM, antibody 27.4 uM, not a Vmax, substrate not at total saturation) [h⁻¹] | kcat ([2]; not a true Vmax)
1 | O=C(O)CCCC(=O)NC1CP(=O)(O)C(CC(=O)NCCc2ccccc2)C1O (stereo not drawn) [phospholane hapten, N-(Z-Phenylethyl)-[1'-hydroxyphosphol-3'-hydroxy-4'-(5-hydroxy-5-oxo-pentanoyl)amino-1'-oxo-2'-yl]acetamide disodium salt] | stoichiometrically inhibited | inhibition of this reaction with hapten | – | – | – | –
2 | CC(=O)NC(CC(N)=O)C(=O)NCC(=O)NCCc1ccccc1 (stereo not drawn) [substrate, phenyl ethyl derivative of the asparaginyl-glycyl dipeptide] (Ac-[ξN]-Gly-NHPhenethyl) | – | – | 1.5±0.3×10^-4 s^-1 | 220 ± 10 | 0.416 | 0.352
